US9540377B2, “2,6,7,8 substituted purines as HDM2 inhibitors” (Merck Sharp & Dohme Corp., priority 2013, dated 2017)

Target: HDM2 (truncated, residues 17 to 125, containing p53 binding surface) (Homo sapiens (Human), UniProt Q00987)
Test: HDM2 FRET assay (inhibition of binding of FITC labeled p53-site peptide to HDM2)
Conditions: Table 18
Text: IC50 DETERMINATIONS: Dose-response curves were plotted from the inhibition data, from 10 point serial dilutions of inhibitory compounds. Concentration of compound was plotted against em520/Cem495 ratio signal. To generate IC50 values, the dose-response curves were fitted to a standard sigmoidal curve and IC50 values were derived by nonlinear regression analysis.

HDM2 (truncated, residues 17 to 125, containing p53 binding surface), sequence (Q00987 17-125): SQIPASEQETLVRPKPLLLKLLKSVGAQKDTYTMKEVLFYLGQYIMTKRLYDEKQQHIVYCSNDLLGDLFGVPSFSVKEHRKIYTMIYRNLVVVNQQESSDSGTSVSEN

SMILES | IC50 [nM]
CC([C@H]1CC[C@H](C)CC1)n1c(N2CCOC3CCCC32)nc2nc(-c3noc(=O)[nH]3)nc(-c3cncc(Cl)c3)c21 (single isomer, unassigned) [Example 18.52, 3-{6-(5-chloropyridin-3-yl)-8-(hexahydrocyclopenta[b][1,4]oxazin-4(4aH)-yl)-7-[1-(trans-4-methylcyclohexyl)ethyl]-7H-purin-2-yl}-1,2,4-oxadiazol-5(4H)-one] | 5.44

Same assay, conditions: Table 23

SMILES | IC50 [nM]
CC(C)(C)C(C)(F)c1nc2nc(-c3noc(=O)[nH]3)nc(-c3cncc(Cl)c3)c2n1C[C@H]1CC[C@H](C)CC1 (mixture of isomers) [Example 23.91, 3-{6-(5-chloropyridin-3-yl)-8-(1-fluoro-1,2,2-trimethylpropyl)-7-[(trans-4-methylcyclohexyl)methyl]-7H-purin-2-yl}-1,2,4-oxadiazol-5(4H)-one] | 13
CC(F)(c1c(F)cccc1F)c1nc2nc(-c3n[nH]c(=O)o3)nc(-c3cncc(Cl)c3)c2n1C[C@H]1CC[C@H](C)CC1 (single isomer, unassigned) [Example 23.81, 5-{6-(5-chloropyridin-3-yl)-8-[1-(2,6-difluorophenyl)-1-fluoroethyl]-7-[(trans-4-methylcyclohexyl)methyl]-7H-purin-2-yl}-1,3,4-oxadiazol-2(3H)-one] | 0.289
CC(F)(c1ccccn1)c1nc2nc(-c3n[nH]c(=O)o3)nc(-c3cccc(Cl)c3)c2n1C[C@H]1CC[C@H](C)CC1 (single isomer, unassigned) [Example 23.36, 5-{6-(3-chlorophenyl)-8-[1-fluoro-1-(pyridin-2-yl)ethyl]-7-[(trans-4-methylcyclohexyl)methyl]-7H-purin-2-yl}-1,3,4-oxadiazol-2(3H)-one] | 9.68
COc1ccccc1C(C)(OC)c1nc2nc(-c3noc(=O)[nH]3)nc(-c3cncc(Cl)c3)c2n1C[C@H]1CC[C@H](C)CC1 (mixture of isomers) [Example 23.79, 3-{6-(5-chloropyridin-3-yl)-8-[1-methoxy-1-(2-methoxyphenyl)ethyl]-7-[(trans-4-methylcyclohexyl)methyl]-7H-purin-2-yl}-1,2,4-oxadiazol-5(4H)-one] | 3.8
C[C@H]1CC[C@H](Cn2c(C(O)C3CCCCC3)nc3nc(-c4n[nH]c(=O)o4)nc(-c4cccc(Cl)c4)c32)CC1 (mixture of isomers) [Example 23.7, 5-{6-(3-chlorophenyl)-8-[cyclohexyl(hydroxy)methyl]-7-[(trans-4-methylcyclohexyl)methyl]-7H-purin-2-yl}-1,3,4-oxadiazol-2(3H)-one] | 20.2
CC1COCCC1(F)c1nc2nc(-c3noc(=O)[nH]3)nc(-c3cncc(Cl)c3)c2n1C[C@H]1CC[C@H](C)CC1 (single isomer, unassigned) [Example 23.94, 3-{6-(5-chloropyridin-3-yl)-8-(4-fluoro-3-methyltetrahydro-2H-pyran-4-yl)-7-[(trans-4-methylcyclohexyl)methyl]-7H-purin-2-yl}-1,2,4-oxadiazol-5(4H)-one] | 23.4
COC(c1nc2nc(-c3noc(=O)[nH]3)nc(-c3cncc(Cl)c3)c2n1C[C@H]1CC[C@H](C)CC1)C1CCCC1 (mixture of isomers) [Example 23.61, 3-{6-(5-chloropyridin-3-yl)-8-[cyclopentyl(methoxy)methyl]-7-[(trans-4-methylcyclohexyl)methyl]-7H-purin-2-yl}-1,2,4-oxadiazol-5(4H)-one] | 4.64
CC(F)(c1ncccc1F)c1nc2nc(-c3n[nH]c(=O)o3)nc(-c3cncc(Cl)c3)c2n1C[C@H]1CC[C@H](C)CC1 (single isomer, unassigned) [Example 23.85, 5-{6-(5-chloropyridin-3-yl)-8-[1-fluoro-1-(3-fluoropyridin-2-yl)ethyl]-7-[(trans-4-methylcyclohexyl)methyl]-7H-purin-2-yl}-1,3,4-oxadiazol-2(3H)-one] | 0.359
